Assay results: PubChem BioAssay (NCI)
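All cell lines were grown in 96-well plates and treated with compound for 48 hours. At the GI50, growth is halved. TGI: total growth inhibition.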

Key:
Assay in all cases: inhibition of tumour cell growth, NCI panel, 48 h
[1] = system: T-47D breast
[2] = system: SK-MEL-28 melanoma
[3] = system: PC-3 prostate
[4] = system: HCT-15 colon
[5] = system: HS 578T breast
[6] = system: MOLT-4 leukemia
[7] = system: DU-145 prostate
[8] = system: K-562 leukemia
[9] = system: NCI-H23 lung
[10] = system: UACC-257 melanoma

SMILES	GI50 [1] [µM]	TGI [1] [µM]	GI50 [2] [µM]	TGI [2] [µM]	GI50 [3] [µM]	TGI [3] [µM]	GI50 [4] [µM]	TGI [4] [µM]	GI50 [5] [µM]	TGI [5] [µM]	GI50 [6] [µM]	TGI [6] [µM]	GI50 [7] [µM]	TGI [7] [µM]	GI50 [8] [µM]	TGI [8] [µM]	GI50 [9] [µM]	TGI [9] [µM]	GI50 [10] [µM]	TGI [10] [µM]
Nc1c(C(=O)c2cccc(C#CCN3CCCCC3)c2)cnn1-c1ccc(F)cc1	11.3	> 25	> 25	> 25	> 25	> 25	> 22.5	> 25	> 25	> 25	21.2	> 25	> 25	> 25	13.1	> 25	> 22.5	> 25	> 24.1	> 25
COc1cc(F)ccc1-c1cc(Nc2cc(CS(C)(=N)=O)ccn2)ncc1F (stereo not given)	0.121		0.102	5.44	0.0451	> 47.2	0.0491	> 100	0.0919		0.111	0.985	0.0773	> 100	0.264	> 100	0.0982	1.24	0.261	> 100
CCOC(=O)c1ccc(NC(=O)NC2=NCCS2)cc1	4.13	> 100	64.9	> 100	0.451	> 100	8.54	> 100	1.97	> 100	1.17	> 100	1.71	> 100	10.5	> 100	3.61	> 100	> 100	> 100
O=C(Nc1cccc2[nH]c(C(F)(F)F)nc12)c1cc(Cl)ccc1Cl	1.84	6.43	4.95	35.4	3.1	92.9	3.38	19.4	2.91	12.9	3	8.65	4.94	> 100	3.71	> 100	2.81	7.78	3.34	12.3
COc1cccc(CNc2ncnc3c2ncn3C2OC(CO)C(O)C2O)c1O (stereo not given)	0.0549		1.55	> 100	0.179	> 100	0.138	> 100	0.108	0.577	0.353	> 44	0.0733	1.22	0.311	> 100	0.282	> 100	1.91	> 100
CSc1ncnc2c1ncn2CC(=O)C1CCC2C3CCC4=CC(=O)CCC4(C)C3CCC12C (stereo not given)		5.63		28.2		9.71		> 77.1		> 100		4.93		> 96.7		> 71.8		35.2		6.09
CCCN(CCC)c1ccc(C=O)c(Cl)c1	0.375	5.1	20	68.9	29.1	> 100	24	> 100	22.9	> 96.8	29.6	97.1	48	> 100	26.4	> 100	25.6	> 100	0.273	0.979
CC(/C=C/C(O)=C1/C(=O)CNC1=O)=C\[C@@H](C)[C@H]1O[C@@]2(C)O[C@H](C(=O)[C@@H]3O[C@@]32C)[C@@H]1C		37.3		38.7		31.8		49.6		52.1		72.2		40.1		> 100		59		35.6
NC(=O)c1cccnc1	> 100	> 100	> 100	> 100	> 100	> 100	> 100	> 100	> 100	> 100	> 100	> 100	> 100	> 100	> 100	> 100	> 100	> 100	> 100	> 100
Cn1c(=O)n(C)c2cc(CNCCNc3ccnc4cc(Cl)ccc34)ccc21	28.3	86.5	16	30.2	34.6	> 100	31	> 100	23.8	95	21.1	> 100	38.5	> 100	6.99	39.4	48.8	> 100	17.6	33.3
C/C(=C(/c1ccccc1)c1ccc(OCC(O)CNCCN2CCOCC2)cc1)c1ccccc1 (stereo not given)	3.49	11.3	1.75	3.25	2.78	10.2	2.19	5.4	1.77	4.1	2.13	5.41	4.37	15.7	1.75	4.26	3.87	14.5	2.02	4.07
COc1ccc2c(c1)C(=O)/C(=C/c1cccc(OCC(=O)Nc3nc(C)c(C)s3)c1)O2	1.99	4.65	0.504	1.72	0.0417	0.226	1.34	2.98	2.94		0.155	0.369	0.121	0.67	0.24		0.0547	0.715	12.8	26.3
CC(C)(C)[Si](C)(C)OC1[C@@H](CNC(N)=O)O[C@@H](n2cnc3c(NC(=O)Nc4ccccc4)ncnc32)[C@H]1O[Si](C)(C)C(C)(C)C (stereo not given in full)	7.56	14.2	6.71	14	0.814	1.99	2.67	10.3	1.17	3.02	1.06	2.24	1.71	5.59	1.06	2.13	1.9	7.83	5.36	12.1
